How the values were obtained:
[1] = target: human adenosine A2a receptor (Homo sapiens (Human), UniProt P29274); assay: HEK293-hA2a [3H]-ZM241385 binding assay (Test A); settings: HEK293 membranes, 1 nM [3H]ZM241385, 25° C., 1 h
Protocol: (§1) All test compounds were prepared as a stock solution of 10 mM in 100% DMSO.

[2] = target: human adenosine A1 receptor (Homo sapiens (Human), UniProt P30542); assay: CHO-hA1 [3H]DPCPX binding assay (Test A); settings: CHO membranes, 1 nM [3H]DPCPX, 25° C., 1 h
Protocol: as §1

[3] = system: haloperidol-induced catalepsy in rats; assay: Catalepsy reversal test (Test B); type: in vivo, Sprague-Dawley rats; settings: dose of 1 mg/kg p.o., 120 min pre-test time
Protocol: The dopamine D2 receptor antagonist, haloperidol, induces Parkinsonism in humans and induces motor effects in rats such as catalepsy. There is considerable evidence that adenosine A2A receptor antagonists reverse haloperidol-induced motor effects in preclinical studies. […] The present study determines the ability of haloperidol-induced catalepsy in rats to be reversed by novel A2A receptor antagonists.
Haloperidol (0.82 mg/kg, i.p.; 150 min pre-test time) induces significant cataleptic behaviour in rats (average score 3.1). The effect of selected compounds of the invention (2-10 mg/kg or 0.3-3 mg/kg, p.o.; 120 min pre-test time) on catalepsy was established by administration of said compounds to rats pre-treated with haloperidol as described above.
Details of a similar test may be found in, for example, Hodgson et al., J. Pharmacol. Exp. Ther. 330, 2009.

human adenosine A2a receptor, sequence (P29274 whole entry): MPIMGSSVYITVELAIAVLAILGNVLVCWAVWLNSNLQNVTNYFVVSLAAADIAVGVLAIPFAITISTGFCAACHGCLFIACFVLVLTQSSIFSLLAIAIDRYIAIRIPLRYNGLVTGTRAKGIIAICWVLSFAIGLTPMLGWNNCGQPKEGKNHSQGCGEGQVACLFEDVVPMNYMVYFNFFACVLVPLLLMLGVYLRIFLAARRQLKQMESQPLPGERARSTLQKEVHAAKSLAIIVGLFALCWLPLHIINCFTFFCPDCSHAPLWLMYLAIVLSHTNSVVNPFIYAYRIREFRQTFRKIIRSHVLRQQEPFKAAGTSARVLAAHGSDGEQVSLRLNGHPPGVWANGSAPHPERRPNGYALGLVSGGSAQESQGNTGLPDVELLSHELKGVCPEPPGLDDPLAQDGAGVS
human adenosine A1 receptor, sequence (P30542 whole entry): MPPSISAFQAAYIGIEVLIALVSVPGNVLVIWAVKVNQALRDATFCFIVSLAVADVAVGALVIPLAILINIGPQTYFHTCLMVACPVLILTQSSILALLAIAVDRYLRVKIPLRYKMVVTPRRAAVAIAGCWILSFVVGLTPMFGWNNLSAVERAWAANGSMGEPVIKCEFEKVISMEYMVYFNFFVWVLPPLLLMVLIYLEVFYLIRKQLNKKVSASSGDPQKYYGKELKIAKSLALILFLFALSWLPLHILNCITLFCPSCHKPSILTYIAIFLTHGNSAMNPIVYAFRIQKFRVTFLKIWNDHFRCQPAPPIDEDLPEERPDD

Cc1cc(-c2nnc(N)nc2-c2ccccc2)cc(N2CCC2)n1 [5(x), 6-[2-(Azetidin-1-yl)-6-methylpyridin-4-yl]-5-phenyl-1,2,4-triazin-3-amine]
pKi A2a [1]: 8.52
pKi A1 [2]: 8.05
reversal of cataleptic behavior in rats pre-treated with haloperidol [3]: statistically significant
